Laboratory results published in PubChem BioAssay AID248 (DTP/NCI, 2004).
Where “and” joins values, the source holds several entries; their conditions need not be identical. Equal values may be shown once. Inconclusive results and toxic doses are left out.

Test system: L1210 leukemia ip in BDF1 mice, survival T/C
Assay: NCI In Vivo Anticancer Drug Screen. Data for tumor model L1210 Leukemia (intraperitoneal) in B6D2F1 (BDF1) mice
Conditions: higher = longer survival
In short: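 Survival endpoint. Drug-treated group vs vehicle group, expressed as T divided by C. Tumor passaged by transplantation.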

Structure (SMILES): CS(=O)(=O)OCCCNCCCOS(C)(=O)=O
- T/C (endpoint: mean survival time, dose: 3.0 mg/kg/injection, schedule: Q03HX024 (ip), vehicle: saline): 122 % of control
- T/C (endpoint: mean survival time, dose: 5.0 mg/kg/injection, schedule: Q03HX008 (ip), vehicle: saline): 119 % of control
- T/C (endpoint: mean survival time, dose: 5.0 mg/kg/injection, schedule: Q03HX024 (ip), vehicle: saline): 152 % of control
- T/C (endpoint: mean survival time, dose: 8.4 mg/kg/injection, schedule: Q01DX009 (ip), vehicle: saline): 160 % of control and 173 % of control
- T/C (endpoint: mean survival time, dose: 8.4 mg/kg/injection, schedule: Q03HX008 (ip), vehicle: saline): 150 % of control
- T/C (endpoint: mean survival time, dose: 8.4 mg/kg/injection, schedule: Q03HX016 (ip), vehicle: saline): 156 % of control
- T/C (endpoint: mean survival time, dose: 8.4 mg/kg/injection, schedule: Q03HX024 (ip), vehicle: saline): 155 % of control and 245 % of control
- T/C (endpoint: mean survival time, dose: 14.0 mg/kg/injection, schedule: Q01DX009 (oral), vehicle: saline): 100 % of control
- T/C (endpoint: mean survival time, dose: 14.0 mg/kg/injection, schedule: Q01DX015 (ip), vehicle: saline): 155 % of control
- T/C (endpoint: mean survival time, dose: 14.0 mg/kg/injection, schedule: Q03HX008 (ip), vehicle: saline): 166 % of control and 239 % of control
- T/C (endpoint: mean survival time, dose: 14.0 mg/kg/injection, schedule: Q03HX016 (ip), vehicle: saline): 188 % of control and 303 % of control
- T/C (endpoint: mean survival time, dose: 14.0 mg/kg/injection, schedule: Q03HX024 (ip), vehicle: saline): 332 % of control and 344 % of control
- T/C (endpoint: mean survival time, dose: 20.0 mg/kg/injection, schedule: Q01DX009 (ip), vehicle: saline): 164 % of control and 179 % of control
- T/C (endpoint: mean survival time, dose: 21.0 mg/kg/injection, schedule: Q01DX015 (ip), vehicle: saline): 155 % of control
- T/C (endpoint: mean survival time, dose: 23.0 mg/kg/injection, schedule: Q01DX009 (oral), vehicle: saline): 115 % of control
- T/C (endpoint: mean survival time, dose: 23.0 mg/kg/injection, schedule: Q03HX008 (ip), vehicle: saline): 184 % of control and 327 % of control
- T/C (endpoint: mean survival time, dose: 23.0 mg/kg/injection, schedule: Q03HX016 (ip), vehicle: saline): 244 % of control and 440 % of control
- T/C (endpoint: mean survival time, dose: 23.0 mg/kg/injection, schedule: Q04DX003 (iv), vehicle: saline): 98 % of control
- T/C (endpoint: mean survival time, dose: 25.0 mg/kg/injection, schedule: Q01DX001 (ip), vehicle: saline): 115 % of control
- T/C (endpoint: mean survival time, dose: 36.0 mg/kg/injection, schedule: Q01DX015 (ip), vehicle: saline): 242 % of control
- T/C (endpoint: mean survival time, dose: 39.0 mg/kg/injection, schedule: Q01DX003 (ip), vehicle: saline): 164 % of control and 170 % of control
- T/C (endpoint: mean survival time, dose: 39.0 mg/kg/injection, schedule: Q01DX005 (ip), vehicle: saline): 190 % of control
- T/C (endpoint: mean survival time, dose: 39.0 mg/kg/injection, schedule: Q01DX009 (sc), vehicle: saline): 120 % of control
- T/C (endpoint: mean survival time, dose: 39.0 mg/kg/injection, schedule: Q04DX003 (ip), vehicle: clinical formulation): 157 % of control
- T/C (endpoint: mean survival time, dose: 39.0 mg/kg/injection, schedule: Q04DX003 (ip), vehicle: saline): 212 % of control
- T/C (endpoint: mean survival time, dose: 39.0 mg/kg/injection, schedule: Q04DX003 (iv), vehicle: saline): 87 % of control
- T/C (endpoint: mean survival time, dose: 39.0 mg/kg/injection, schedule: Q08DX002 (ip), vehicle: saline): 200 % of control
- T/C (endpoint: mean survival time, dose: 40.0 mg/kg/injection, schedule: Q01DX009 (ip), vehicle: saline): 178 % of control and 188 % of control
- T/C (endpoint: mean survival time, dose: 60.0 mg/kg/injection, schedule: Q01DX015 (ip), vehicle: saline): 159 % of control
- T/C (endpoint: mean survival time, dose: 65.0 mg/kg/injection, schedule: Q01DX001 (ip), vehicle: saline): 160 % of control
- T/C (endpoint: mean survival time, dose: 65.0 mg/kg/injection, schedule: Q01DX001 (oral), vehicle: saline): 109 % of control
- T/C (endpoint: mean survival time, dose: 65.0 mg/kg/injection, schedule: Q01DX003 (ip), vehicle: saline): 241 % of control
- T/C (endpoint: mean survival time, dose: 65.0 mg/kg/injection, schedule: Q01DX005 (ip), vehicle: saline): 402 % of control
- T/C (endpoint: mean survival time, dose: 65.0 mg/kg/injection, schedule: Q01DX009 (oral), vehicle: saline): 106 % of control
- T/C (endpoint: mean survival time, dose: 65.0 mg/kg/injection, schedule: Q04DX003 (ip), vehicle: clinical formulation): 159 % of control
- T/C (endpoint: mean survival time, dose: 65.0 mg/kg/injection, schedule: Q04DX003 (ip), vehicle: saline): 299 % of control and 445 % of control
- T/C (endpoint: mean survival time, dose: 65.0 mg/kg/injection, schedule: Q04DX003 (ip), vehicle: water): 173 % of control
- T/C (endpoint: mean survival time, dose: 65.0 mg/kg/injection, schedule: Q04DX003 (iv), vehicle: saline): 109 % of control
- T/C (endpoint: mean survival time, dose: 65.0 mg/kg/injection, schedule: Q04DX003 (oral), vehicle: saline): 120 % of control
- T/C (endpoint: mean survival time, dose: 65.0 mg/kg/injection, schedule: Q08DX002 (ip), vehicle: saline): 226 % of control
- T/C (endpoint: mean survival time, dose: 80.0 mg/kg/injection, schedule: Q01DX009 (ip), vehicle: saline): 94 % of control and 122 % of control
- T/C (endpoint: mean survival time, dose: 100.0 mg/kg/injection, schedule: Q01DX001 (ip), vehicle: saline): 150 % of control
- T/C (endpoint: mean survival time, dose: 108.0 mg/kg/injection, schedule: Q01DX001 (ip), vehicle: saline): 193 % of control and 337 % of control
- T/C (endpoint: mean survival time, dose: 108.0 mg/kg/injection, schedule: Q01DX001 (oral), vehicle: saline): 110 % of control
- T/C (endpoint: mean survival time, dose: 108.0 mg/kg/injection, schedule: Q01DX001 (sc), vehicle: saline): 115 % of control
- T/C (endpoint: mean survival time, dose: 108.0 mg/kg/injection, schedule: Q01DX003 (ip), vehicle: saline): 247 % of control and 310 % of control
- T/C (endpoint: mean survival time, dose: 108.0 mg/kg/injection, schedule: Q01DX005 (ip), vehicle: saline): 280 % of control
- T/C (endpoint: mean survival time, dose: 108.0 mg/kg/injection, schedule: Q01DX009 (sc), vehicle: saline): 93 % of control
- T/C (endpoint: mean survival time, dose: 108.0 mg/kg/injection, schedule: Q04DX003 (ip), vehicle: clinical formulation): 108 % of control
- T/C (endpoint: mean survival time, dose: 108.0 mg/kg/injection, schedule: Q04DX003 (ip), vehicle: saline): 267 % of control and 422 % of control
- T/C (endpoint: mean survival time, dose: 108.0 mg/kg/injection, schedule: Q04DX003 (ip), vehicle: water): 100 % of control
- T/C (endpoint: mean survival time, dose: 108.0 mg/kg/injection, schedule: Q04DX003 (iv), vehicle: saline): 113 % of control
- T/C (endpoint: mean survival time, dose: 180.0 mg/kg/injection, schedule: Q01DX001 (ip), vehicle: saline): 246 % of control
- T/C (endpoint: mean survival time, dose: 180.0 mg/kg/injection, schedule: Q01DX001 (oral), vehicle: saline): 120 % of control
- T/C (endpoint: mean survival time, dose: 180.0 mg/kg/injection, schedule: Q01DX001 (sc), vehicle: saline): 115 % of control
- T/C (endpoint: mean survival time, dose: 180.0 mg/kg/injection, schedule: Q01DX003 (ip), vehicle: saline): 95 % of control and 103 % of control
- T/C (endpoint: mean survival time, dose: 180.0 mg/kg/injection, schedule: Q04DX003 (iv), vehicle: saline): 118 % of control
- T/C (endpoint: mean survival time, dose: 180.0 mg/kg/injection, schedule: Q04DX003 (oral), vehicle: saline): 95 % of control
- T/C (endpoint: mean survival time, dose: 180.0 mg/kg/injection, schedule: Q08DX002 (ip), vehicle: saline): 421 % of control
- T/C (endpoint: mean survival time, dose: 200.0 mg/kg/injection, schedule: Q01DX001 (ip), vehicle: saline): 157 % of control and 176 % of control and 200 % of control
- T/C (endpoint: median survival time, dose: 12.5 mg/kg/injection, schedule: Q01DX009 (ip), vehicle: saline): 115 % of control
- T/C (endpoint: median survival time, dose: 23.0 mg/kg/injection, schedule: Q01DX005 (ip), vehicle: saline): 122 % of control
- T/C (endpoint: median survival time, dose: 25.0 mg/kg/injection, schedule: Q01DX009 (ip), vehicle: saline): 150 % of control
- T/C (endpoint: median survival time, dose: 39.0 mg/kg/injection, schedule: Q01DX005 (ip), vehicle: saline): 155 % of control
- T/C (endpoint: median survival time, dose: 39.0 mg/kg/injection, schedule: Q01DX005 (sc), vehicle: saline): 122 % of control
- T/C (endpoint: median survival time, dose: 39.0 mg/kg/injection, schedule: Q01DX009 (ip), vehicle: saline): 150 % of control
- T/C (endpoint: median survival time, dose: 50.0 mg/kg/injection, schedule: Q01DX009 (ip), vehicle: saline): 180 % of control
- T/C (endpoint: median survival time, dose: 50.0 mg/kg/injection, schedule: Q04DX003 (ip), vehicle: saline): 161 % of control
- T/C (endpoint: median survival time, dose: 65.0 mg/kg/injection, schedule: Q01DX005 (ip), vehicle: saline): 155 % of control
- T/C (endpoint: median survival time, dose: 65.0 mg/kg/injection, schedule: Q01DX009 (ip), vehicle: saline): 100 % of control and 115 % of control
- T/C (endpoint: median survival time, dose: 65.0 mg/kg/injection, schedule: Q04DX003 (ip), vehicle: saline): 155 % of control
- T/C (endpoint: median survival time, dose: 100.0 mg/kg/injection, schedule: Q04DX003 (ip), vehicle: saline): 177 % of control and 666 % of control
- T/C (endpoint: median survival time, dose: 108.0 mg/kg/injection, schedule: Q01DX001 (ip), vehicle: saline): 155 % of control
- T/C (endpoint: median survival time, dose: 108.0 mg/kg/injection, schedule: Q01DX005 (ip), vehicle: saline): 100 % of control
- T/C (endpoint: median survival time, dose: 108.0 mg/kg/injection, schedule: Q01DX005 (sc), vehicle: saline): 88 % of control
- T/C (endpoint: median survival time, dose: 108.0 mg/kg/injection, schedule: Q04DX003 (ip), vehicle: saline): 188 % of control
- T/C (endpoint: median survival time, dose: 200.0 mg/kg/injection, schedule: Q04DX003 (ip), vehicle: saline): 100 % of control

Structure (SMILES): Clc1ccc2c(c1)Sc1ccc(Cl)cc1S2
- T/C (endpoint: mean survival time, dose: 100.0 mg/kg/injection, schedule: Q04DX002 (ip), vehicle: saline with Tween-80): 101 % of control
- T/C (endpoint: mean survival time, dose: 200.0 mg/kg/injection, schedule: Q04DX002 (ip), vehicle: saline with Tween-80): 101 % of control
- T/C (endpoint: mean survival time, dose: 400.0 mg/kg/injection, schedule: Q04DX002 (ip), vehicle: saline with Tween-80): 97 % of control

Structure (SMILES): CCC(OO)(C1=NC(C)(C)CO1)c1ccncc1Br (stereo not given)
- T/C (endpoint: mean survival time, dose: 100.0 mg/kg/injection, schedule: Q01DX001 (ip), vehicle: Klucel (hydroxypropylcellulose) (HPC)): 98 % of control
- T/C (endpoint: mean survival time, dose: 100.0 mg/kg/injection, schedule: Q04DX003 (ip), vehicle: Klucel (hydroxypropylcellulose) (HPC)): 97 % of control
- T/C (endpoint: mean survival time, dose: 200.0 mg/kg/injection, schedule: Q01DX001 (ip), vehicle: Klucel (hydroxypropylcellulose) (HPC)): 101 % of control
- T/C (endpoint: mean survival time, dose: 200.0 mg/kg/injection, schedule: Q04DX003 (ip), vehicle: Klucel (hydroxypropylcellulose) (HPC)): 101 % of control
- T/C (endpoint: mean survival time, dose: 400.0 mg/kg/injection, schedule: Q04DX003 (ip), vehicle: Klucel (hydroxypropylcellulose) (HPC)): 102 % of control
